Reference: ChEMBL document CHEMBL3867482, “Design and synthesis of water soluble β-aminosulfone analogues of SCH 900229 as γ-secretase inhibitors” (Bioorg Med Chem Lett, 2016)

Experiments:
Mus musculus [1] = assay: Antialzheimer activity in B6C3F1 mouse assessed as reduction in amyloid beta 40 levels in plasma at 30 mg/kg, po after 12 hrs; type: functional; set-up: scale not given: the % may be the effect or the level left
[2] = Ratio of drug level in brain to plasma in mouse at 6 hrs; type: ADME, organism-based; conditions: brain and plasma, read-out: BPR
[3] = AUC (0 to 6 hrs) in mouse at 10 mg/kg, po by LC/MS/MS analysis; type: ADME, organism-based; set-up: time < 6 hr, dose 10 mg/kg, route oral; conditions: in vivo
[4] = Inhibition of gamma-secretase in HEK293 cell membranes expressing human APP Swedish/London double mutant assessed as reduction in amyloid beta 40 formation after 1 hr by electrochemiluminescence based immunoassay
[5] = Clearance in human hepatocytes assessed per million cells by HPLC/atmospheric pressure chemical ionization/MS analysis; type: ADME, cell-based, Hepatocyte; conditions: read-out: CLH
hERG (KCNH2) [6] = target: T1, hERG (KCNH2) (Homo sapiens, UniProt Q12809); assay: Inhibition of human ERG at 10 uM by thallium flux assay
[7] = Clearance in rat hepatocytes assessed per million cells by HPLC/atmospheric pressure chemical ionization/MS analysis; type: ADME, cell-based, Hepatocyte; conditions: read-out: CLH
Mus musculus [8] = assay: Antialzheimer activity in B6C3F1 mouse assessed as amyloid beta 40 level in plasma at 10 mg/kg, po administered as single dose after 3 hrs relative to control; type: functional
Mus musculus [9] = assay: Antialzheimer activity in B6C3F1 mouse assessed as amyloid beta 40 level in cortex at 10 mg/kg, po administered as single dose after 3 hrs relative to control; type: functional
[10] = Clearance in dog hepatocytes assessed per million cells by HPLC/atmospheric pressure chemical ionization/MS analysis; type: ADME, cell-based, Canis lupus familiaris, Hepatocyte; conditions: read-out: CLH
Cytochrome P450 2C9 = Cytochrome P450 2C9 (Homo sapiens, UniProt P11712); assay: Inhibition of CYP2C9 in human liver microsomes after 30 secs by LC/MS/MS analysis; type: ADME
Mus musculus [11] = assay: Antialzheimer activity in B6C3F1 mouse assessed as amyloid beta 40 levels in plasma at 30 mg/kg, po after 24 hrs; type: functional
[12] = Drug metabolism in rat assessed as N-demethylation; type: ADME
[13] = Dissociation constant, pKa of the compound; type: physicochemical
[14] = Drug metabolism in rat assessed as beta-elemination; type: ADME
Mus musculus [15] = assay: Antialzheimer activity in B6C3F1 mouse assessed as reduction in amyloid beta 40 levels in cortex at 30 mg/kg, po after 6 hrs; type: functional; set-up: scale not given: the % may be the effect or the level left
[16] = Clearance in monkey hepatocytes assessed per million cells by HPLC/atmospheric pressure chemical ionization/MS analysis; type: ADME, cell-based, Macaca mulatta, Hepatocyte; conditions: rhesus monkey, read-out: CLH
Cytochrome P450 3A4 [17] = target: T2, Cytochrome P450 3A4 (Homo sapiens, UniProt P08684); assay: Inhibition of CYP3A4 in human liver microsomes after 30 secs by LC/MS/MS analysis; type: ADME
Mus musculus [18] = assay: Antialzheimer activity in B6C3F1 mouse assessed as reduction in amyloid beta 40 levels in plasma at 30 mg/kg, po after 6 hrs; type: functional; set-up: scale not given: the % may be the effect or the level left
Cytochrome P450 3A4 [19] = target: T2, Cytochrome P450 3A4; assay: Inhibition of CYP3A4 in human liver microsomes preincubated for 30 mins after 30 secs by LC/MS/MS analysis; type: ADME
hERG (KCNH2) [20] = target: T1, hERG (KCNH2); assay: Inhibition of human ERG at 1 uM by Thallium flux assay
Mus musculus [21] = assay: Antialzheimer activity in B6C3F1 mouse assessed as reduction in amyloid beta 40 levels in cortex at 30 mg/kg, po after 24 hrs; type: functional; set-up: scale not given: the % may be the effect or the level left
Mus musculus [22] = assay: Antialzheimer activity in B6C3F1 mouse assessed as reduction in amyloid beta 40 levels in cortex at 30 mg/kg, po after 12 hrs; type: functional; set-up: scale not given: the % may be the effect or the level left
Cytochrome P450 2D6 = Cytochrome P450 2D6 (Homo sapiens, UniProt P10635); assay: Inhibition of CYP2D6 in human liver microsomes after 30 secs by LC/MS/MS analysis; type: ADME
[23] = Kinetic solubility of compound; type: physicochemical; conditions: read-out: Kinetic_solubility

T2 sequence (P08684 whole entry): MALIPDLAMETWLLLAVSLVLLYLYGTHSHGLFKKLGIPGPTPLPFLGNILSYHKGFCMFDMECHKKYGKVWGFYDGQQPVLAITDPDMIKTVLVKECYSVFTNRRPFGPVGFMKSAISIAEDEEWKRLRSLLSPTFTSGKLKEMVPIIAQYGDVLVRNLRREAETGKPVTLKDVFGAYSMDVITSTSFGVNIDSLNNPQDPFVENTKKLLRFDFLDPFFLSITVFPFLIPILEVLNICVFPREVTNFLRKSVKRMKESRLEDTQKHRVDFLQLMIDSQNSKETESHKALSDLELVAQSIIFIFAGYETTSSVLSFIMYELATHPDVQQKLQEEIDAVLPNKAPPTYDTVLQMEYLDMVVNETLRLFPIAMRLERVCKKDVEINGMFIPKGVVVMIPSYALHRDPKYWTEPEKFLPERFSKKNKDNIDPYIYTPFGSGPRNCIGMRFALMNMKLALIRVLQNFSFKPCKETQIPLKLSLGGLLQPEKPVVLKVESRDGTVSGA
T1 sequence (Q12809 whole entry): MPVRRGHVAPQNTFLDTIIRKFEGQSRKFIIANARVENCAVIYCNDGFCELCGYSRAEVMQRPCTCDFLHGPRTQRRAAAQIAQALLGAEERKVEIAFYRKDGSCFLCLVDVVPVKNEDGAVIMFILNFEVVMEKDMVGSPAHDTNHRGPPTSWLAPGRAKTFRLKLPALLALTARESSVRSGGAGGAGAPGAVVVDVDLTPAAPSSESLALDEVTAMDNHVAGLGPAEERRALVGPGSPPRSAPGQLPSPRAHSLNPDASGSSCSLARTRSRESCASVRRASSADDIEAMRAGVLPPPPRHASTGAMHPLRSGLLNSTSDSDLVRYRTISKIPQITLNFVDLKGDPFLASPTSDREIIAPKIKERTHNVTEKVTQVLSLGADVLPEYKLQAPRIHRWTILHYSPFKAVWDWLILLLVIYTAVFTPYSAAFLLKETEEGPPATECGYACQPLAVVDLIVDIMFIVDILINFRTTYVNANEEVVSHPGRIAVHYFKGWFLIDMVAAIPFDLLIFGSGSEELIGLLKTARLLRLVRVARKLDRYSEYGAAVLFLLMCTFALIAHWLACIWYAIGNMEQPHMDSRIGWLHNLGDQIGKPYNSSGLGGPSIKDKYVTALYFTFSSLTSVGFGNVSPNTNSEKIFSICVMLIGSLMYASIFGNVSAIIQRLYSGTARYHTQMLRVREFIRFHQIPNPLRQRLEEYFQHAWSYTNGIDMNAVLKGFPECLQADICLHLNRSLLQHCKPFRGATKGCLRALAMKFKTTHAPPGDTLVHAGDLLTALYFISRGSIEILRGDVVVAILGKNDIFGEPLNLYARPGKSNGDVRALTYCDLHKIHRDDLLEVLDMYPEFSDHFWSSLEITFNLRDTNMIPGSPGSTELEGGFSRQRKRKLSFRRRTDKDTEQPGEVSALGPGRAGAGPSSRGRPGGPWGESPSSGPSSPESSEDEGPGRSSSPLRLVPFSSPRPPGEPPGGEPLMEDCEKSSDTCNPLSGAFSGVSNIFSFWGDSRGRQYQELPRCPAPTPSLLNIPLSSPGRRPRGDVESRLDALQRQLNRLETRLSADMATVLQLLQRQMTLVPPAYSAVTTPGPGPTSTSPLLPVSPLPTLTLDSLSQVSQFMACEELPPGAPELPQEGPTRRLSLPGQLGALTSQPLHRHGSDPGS
Sequence of Cytochrome P450 2C9 (P11712 whole entry): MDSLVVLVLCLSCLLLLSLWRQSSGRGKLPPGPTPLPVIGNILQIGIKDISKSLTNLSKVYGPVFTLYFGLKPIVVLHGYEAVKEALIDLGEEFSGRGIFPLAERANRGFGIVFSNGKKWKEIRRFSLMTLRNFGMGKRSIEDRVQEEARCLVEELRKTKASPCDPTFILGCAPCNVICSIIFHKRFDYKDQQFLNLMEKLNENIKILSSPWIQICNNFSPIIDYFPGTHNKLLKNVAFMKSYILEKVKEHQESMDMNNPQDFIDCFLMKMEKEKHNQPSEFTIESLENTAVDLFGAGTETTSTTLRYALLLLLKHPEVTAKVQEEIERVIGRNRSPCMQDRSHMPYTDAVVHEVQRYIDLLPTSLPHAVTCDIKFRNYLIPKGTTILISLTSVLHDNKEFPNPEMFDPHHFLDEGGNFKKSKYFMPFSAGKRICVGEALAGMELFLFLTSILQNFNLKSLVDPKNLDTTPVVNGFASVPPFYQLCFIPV
Sequence of Cytochrome P450 2D6 (P10635 whole entry): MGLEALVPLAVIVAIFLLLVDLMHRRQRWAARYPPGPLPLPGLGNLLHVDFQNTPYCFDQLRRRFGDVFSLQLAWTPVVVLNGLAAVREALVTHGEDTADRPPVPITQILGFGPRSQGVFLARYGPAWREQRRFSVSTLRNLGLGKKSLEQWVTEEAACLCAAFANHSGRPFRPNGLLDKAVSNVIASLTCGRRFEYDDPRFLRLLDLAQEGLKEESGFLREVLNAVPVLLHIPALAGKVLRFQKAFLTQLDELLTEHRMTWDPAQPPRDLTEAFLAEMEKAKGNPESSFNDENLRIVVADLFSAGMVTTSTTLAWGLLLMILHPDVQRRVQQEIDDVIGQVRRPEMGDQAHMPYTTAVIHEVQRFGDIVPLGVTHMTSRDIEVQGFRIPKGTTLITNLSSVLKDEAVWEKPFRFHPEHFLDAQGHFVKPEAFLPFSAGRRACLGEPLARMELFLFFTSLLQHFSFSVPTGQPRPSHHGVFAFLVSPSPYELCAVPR

| Compound | Kp at 6 h [2] | AUC(0-t) at 6 h [3] [µM·h] | IC50 [4] [µM] | hepatocyte CLint [5] [µL/min/1e6 cells] | hepatocyte CLint [7] [µL/min/1e6 cells] | Activity (Mus musculus [8]) [%] | Activity (Mus musculus [9]) [%] | hepatocyte CLint [10] [µL/min/1e6 cells] | IC50 (Cytochrome P450 2C9) [µM] | hepatocyte CLint [16] [µL/min/1e6 cells] | IC50 (Cytochrome P450 3A4 [17]) [µM] | IC50 (Cytochrome P450 3A4 [19]) [µM] | IC50 (Cytochrome P450 2D6) [µM] | also measured |
| --- | --- | --- | --- | --- | --- | --- | --- | --- | --- | --- | --- | --- | --- | --- |
| CNCCS(=O)(=O)CC[C@@H]1OCC[C@@]2(S(=O)(=O)c3ccc(Cl)cc3)c3c(F)ccc(F)c3OC[C@@H]12 | 0.4 | 0.532 | 0.0041 | 17.3 | 22.3 | -44 | -61 | 11.5 | > 20 | 40.5 | > 20 | 8.4 | > 20 | Activity (Mus musculus [1]): 35%; inhibition at 10 µM (hERG (KCNH2) [6]): 21%; Activity (Mus musculus [11]): 50%; Drug metabolism [12]: Metabolite_Notdetected; pKa [13]: 7.7; Drug metabolism [14]: Metabolite_Notdetected; Activity (Mus musculus [15]): 73%; Activity (Mus musculus [18]): 93%; inhibition at 1 µM (hERG (KCNH2) [20]): 1%; Activity (Mus musculus [21]): 37%; Activity (Mus musculus [22]): 66% |
| CNC(C)(C)CCS(=O)(=O)CC[C@@H]1OCC[C@@]2(S(=O)(=O)c3ccc(Cl)cc3)c3c(F)ccc(F)c3OC[C@@H]12 | 1 | 0.477 | 0.0022 | 20.4 | 25.8 | -51 | -33 | 23.5 | > 20 | 55.1 | > 20 | > 20 | > 20 | solubility kinetic [23]: > 20 µM |
